Experimental data taken from US5578634A, “1H-indole-3-acetic acid hydrazide sPLA2 inhibitors” (Eli Lilly and Company, priority 1995, dated 1996).

Experiments:
sPLA2 contraction = molecular target: T1, sPLA2 contraction (Homo sapiens, UniProt P14555); assay: sPLA2-induced contraction of guinea pig lung pleural strips, tissue test (Assay Example 2); design: species or system Male Hartley strain guinea pigs; key to transient contraction of tissue during test: *: indicates transient contraction of tissue during test; conditions: for inhibition at 30 µM / inhibition at 10 µM: guinea pig, sPLA2 10 ug/ml; for inhibition at 30 µM: compound concentration 30 uM, read-out: % suppression of sPLA2 contraction at 30 uM; for inhibition at 10 µM: compound concentration 10 uM, read-out: % suppression of sPLA2 contraction at 10 uM; for transient contraction of tissue during test: footnote * of Table 2
T1 sequence (P14555 21-144): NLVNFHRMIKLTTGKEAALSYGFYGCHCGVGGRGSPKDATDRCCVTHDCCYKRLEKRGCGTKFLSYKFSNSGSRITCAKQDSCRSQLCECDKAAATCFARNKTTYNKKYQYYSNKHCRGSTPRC
Description: Male Hartley strain guinea pigs (500-700 g) were killed by cervical dislocation and their heart and lungs removed intact and placed in aerated (95% O2 :5% CO2) Krebs buffer. Dorsal pleural strips (4×1×25 mm) were dissected from intact parenchymal segments (8×4×25 mm) cut parallel to the outer edge of the lower lung lobes. Two adjacent pleural strips, obtained from a single lobe and representing a single tissue sample, were tied at either end and independently attached to a metal support rod. One rod was attached to a Grass force-displacement transducer (Model FTO3C, product of Grass Medical Instruments Co., Quincy, Mass., USA). […] All tissues were placed in 10 ml jacketed tissue baths maintained at 37° C. The tissue baths were continuously aerated and contained a modified Krebs solution of the following composition (millimolar) NaCl, 118.2; KCl, 4.6; CaCl2.2H2 O, 2.5; MgSO4.7H2 O, 1.2; NaHCO3, 24.8; KH2 PO4, 1.0; and dextrose, 10.0. Pleural strips from the opposite lobes of the lung were used for paired experiments. […] The tissues were allowed to equilibrate for 45 min. as the bath fluid was changed periodically. Cumulative concentration-response curves: Initially tissues were challenged 3 times with KCl (40 mM) to test tissue viability and to obtain a consistent response. After recording the maximal response to KCl the tissues were washed and allowed to return to baseline before the next challenge. Cumulative concentration-response curves were obtained from pleural strips by increasing the agonist concentration (sPLA2) in the tissue bath by half-log10 increments while the previous concentration remained in contact with the tissues (Ref.1, supra.) Agonist concentration was increased after reaching the plateau of the contraction elicited by the preceding concentration. One concentration-response curve was obtained from each tissue. To minimize variability between tissues obtained from different animals, contractile responses were expressed as a percentage of the maximal response obtained with the final KCl challenge. When studying the effects of various drugs on the contractile effects of sPLA2, the compounds and their respective vehicles were added to the tissues 30 min. prior to starting the sPLA2 concentration-response curves. statistical analysis: Data from different experiments were pooled and presented as a percentage of the maximal KCl responses (mean±S.E.). To estimate the drug induced rightward shifts in the concentration response curves, the curves were analyzed simultaneously using statistical nonlinear modeling methods similar to those described by Waud (1976), Equation 26, p. 163, (Ref.2). The model includes four parameters: the maximum tissue response which was assumed the same for each curve, the ED50 for the control curve, the steepness of the curves, and the PA2, the concentration of antagonist that requires a two-fold increase in agonist to achieve an equivalent response. The Schild slope was determined to be 1, using statistical nonlinear modeling methods similar to those described by Waud (1976), Equation 27, p. 164 (Ref. 2). […] To estimate the drug-induced suppression of the maximal responses, sPLA2 responses (10 ug/ml) were determined in the absence and presence of drug, and percent suppression was calculated for each pair of tissues. Ref. 1--van Rossum, J. M.: Cumulative dose-response curves. II. Technique for the making of dose-response curves in isolated organs and the evaluation of drug parameters. Arch. Int. Pharmacodyn. Ther. 143: 299-330, 1963. Ref. 2--Waud, D.: Analysis of dose-response relationships. in Advances in General and Cellular Pharmacology […]

human secreted PLA2 = molecular target: T2, human secreted PLA2 (Homo sapiens, UniProt P14555); assay: chromogenic assay of recombinant human secreted phospholipase A2 inhibition (Assay Example 1); type: biochemical; conditions: mean of 3-5 tests; 40° C., 30 minutes, pH 7.5, 405 nanometers; read-out: Inhibition of human secreted PLA2 IC50 ± mean deviation (3-5 tests)
T2 sequence (P14555 21-144): T1 sequence (P14555 21-144)
Description: The assay described herein has been adapted for high volume screening using 96 well microtiter plates. A general description of this assay method is found in the article, "Analysis of Human Synovial Fluid Phospholipase A2 on Short Chain Phosphatidylcholine-Mixed Micelles: Development of a Spectrophotometric Assay Suitable for a Microtiterplate Reader", by Laure J. Reynolds, Lori L. […] Reagents, the disclosure of which is incorporated herein by reference. REACTION BUFFER CaCl2.2H20 (1.47 g/L) KCl (7.455 g/L) Bovine Serum Albumin (fatty acid free) (1 g/L) (Sigma A-7030, product of Sigma Chemical Co. St. Louis Mo., USA) TRIS HCl (3.94 g/L) pH 7.5 (adjust with NaOH) ENZYME BUFFER […] 0.2 NaCl Adjust pH to 4.5 with acetic acid DTNB […] RACEMIC DIHEPTANOYL THIO - PC […] TRITON X-100™ prepare at 6.249 mg/ml in reaction buffer to equal […]. REACTION MIXTURE A measured volume of racemic dipheptanoyl thio PC supplied in chloroform at a concentration of 100 mg/ml is taken to dryness and redissolved in 10 millimolar TRITON X-100™ nonionic detergent aqueous solution. Reaction Buffer is added to the solution, then DTNB to give the Reaction Mixture. The reaction mixture thus obtained contains 1 mM diheptanoly thio-PC substrate, 0.29 mM Triton X-100™ detergent, and 0.12 mM DTMB in a buffered aqueous solution at pH 7.5. Assay Procedure: 1. Add 0.2 ml reaction mixture to all wells; 2. Add 10 ul test compound (or solvent blank) to appropriate wells, mix 20 seconds; 3. Add 50 nanograms of sPLA2 (10 microliters) to appropriate wells; 4. Incubate plate at 40° C. for 30 minutes; […] Read absorbance of wells at 405 nanometers with an automatic plate reader. All compounds were tested in triplicate. Typically, compounds were tested at a final concentration of 5 ug/ml. […] Lack of color development at 405 nanometers evidenced inhibition. Compounds initially found to be active were reassayed to confirm their activity and, if sufficiently active, IC50 values were determined. […] In all cases, % inhibition measured at 405 nanometers generated by enzyme reactions containing inhibitors relative to the uninhibited control reactions was determined. Each sample was titrated in triplicate and result values were averaged for plotting and calculation of IC50 values. […] IC50 values were determined at least three times for each compound tested.

Row | SMILES | inhibition at 30 µM (sPLA2 contraction) | IC50 (human secreted PLA2) | inhibition at 10 µM (sPLA2 contraction) | transient contraction of tissue during test (sPLA2 contraction)
1 | Cc1c(CC(=O)NN)c2cc(O)ccc2n1Cc1ccccc1 [Example 61, 5-Hydroxy-2-methyl-1-(phenylmethyl)-1H-indole-3-acetic acid hydrazide] | 72.3 ± 4.5% | 1390 ± 690 nM | – | –
2 | CCc1c(CC(=O)NN)c2cc(OC)ccc2n1Cc1ccccc1-c1ccccc1 [Example 4, 1-([1,1'-biphenyl]-2-ylmethyl)-2-ethyl-5-methoxy-1H-indole-3-acetic acid hydrazide] | 11 ± 10.3% | 5170 ± 6710 nM | – | –
3 | COc1ccc2c(c1)c(CC(=O)NN)c(C)n2Cc1cccc(OCc2ccccc2)c1 [Example 30, 1-[(3-Benzyloxyphenyl)methyl]-5-methoxy-2-methyl-1H-indole-3-acetic acid hydrazide] | 60.9 ± 9.7% | 610 ± 220 nM | 21.4% | –
4 | COc1ccc2c(c1)c(CC(=O)NN)c(C)n2Cc1ccccc1 [Example 16, 5-Methoxy-2-methyl-1-(phenylmethyl)-1H-indole-3-acetic acid hydrazide] | 83.9 ± 3.2% | 860 ± 120 nM | 55.2 ± 6.6% | –
5 | COc1ccc2c(c1)c(CC(=O)NN)c(Cl)n2Cc1ccccc1 [Example 43, 2-Chloro-5-methoxy-1-(phenylmethyl)-1H-indole-3-acetic acid hydrazide] | 91.3 ± 6% | 390 ± 30 nM | – | –
6 | CCc1c(CC(=O)NN)c2cc(OC3CCCC3)ccc2n1Cc1ccccc1 [Example 2, 5-Cyclopentoxy-2-ethyl-1-(phenylmethyl)-1H-indole-3-acetic acid hydrazide] | 60.5 ± 12.8% | 470 ± 150 nM | – | –
7 | Cc1c(CC(=O)NN)c2cc(C(=O)NN)ccc2n1Cc1ccccc1 [Example 70, 5-Hydrazinocarbonyl-2-methyl-1-(phenylmethyl)-1H-indole-3-acetic acid hydrazide] | 45.1 ± 6.8% | 2470 ± 640 nM | – | –
8 | Cc1c(CC(=O)NN)c2ccc(-c3ccccc3)cc2n1Cc1ccccc1 [Example 57, 2-Methyl-6-phenyl-1-(phenylmethyl)-1H-indole-3-acetic acid hydrazide] | 66.3 ± 5.9% | 930 ± 550 nM | – | –
9 | COc1ccc2c(c1)c(CC(=O)NN)c(C)n2Cc1cccc(Cl)c1 [Example 18, 1-(3-Chlorophenylmethyl)-5-methoxy-2-methyl-1H-indole-3-acetic acid hydrazide] | 98 ± 1.5% | 1020 ± 180 nM | 70.7 ± 6.4% | *
10 | COc1ccc2c(c1)c(CC(=O)NN)c(C)n2Cc1cccc(-c2ccccc2)c1 [Example 25, 1-([1,1'-Biphenyl]-3-ylmethyl)-5-methoxy-2-methyl-1H-indole-3-acetic acid hydrazide] | 7.3 ± 9.9% | 940 ± 330 nM | – | –
11 | COc1ccc2c(c1)c(CC(=O)NN)c(C)n2Cc1cccc(O)c1 [Example 31, 1-[(3-Hydroxyphenyl)methyl]-5-methoxy-2-methyl-1H-indole-3-acetic acid hydrazide] | 47.5 ± 13.4% | 3000 ± 1400 nM | – | –
12 | COc1ccc2c(c1)c(CC(=O)NN)c(C)n2Cc1ccccc1-c1ccccc1 [Example 24, 1-([1,1'-Biphenyl]-2-ylmethyl)-5-methoxy-2-methyl-1H-indole-3-acetic acid hydrazide] | -4.2 ± 6.2% | 260 ± 80 nM | – | –
13 | COc1ccc2c(c1)c(CC(=O)NN)c(Br)n2Cc1ccccc1 [Example 44, 2-Bromo-5-methoxy-1-(phenylmethyl)-1H-indole-3-acetic acid hydrazide] | 87.4 ± 9.3% | 430 ± 30 nM | – | –
14 | CCCc1c(CC(=O)NN)c2cc(OC)ccc2n1Cc1ccccc1 [Example 5, 5-Methoxy-1-(phenylmethyl)-2-propyl-1H-indole-3-acetic acid hydrazide] | 21.2 ± 12.5% | 70500 ± 2890 nM | – | –
15 | CCc1c(CC(=O)NN)c2cc(OC)ccc2n1Cc1ccccc1 [Example 3, 2-Ethyl-5-methoxy-1-(phenylmethyl)-1H-indole-3-acetic acid hydrazide] | 77.9 ± 4.2% | 420 ± 190 nM | – | *
16 | Cc1c(CC(=O)NN)c2cc(Br)ccc2n1Cc1cccc(OCc2ccccc2)c1 [Example 52, 1-[(3-Benzyloxyphenyl)methyl]-5-bromo-2-methyl-1H-indole-3-acetic acid hydrazide] | 29.1 ± 7% | 710 ± 340 nM | 37.8 ± 15.5% | –
17 | COc1ccc(Cn2c(C)c(CC(=O)NN)c3cc(OC)ccc32)cc1 [Example 28, 5-Methoxy-1-[(4-methoxyphenyl)methyl]-2-methyl-1H-indole-3-acetic acid hydrazide] | – | 11700 ± 4040 nM | – | –
18 | COc1ccc2c(c1)c(CC(=O)NN)c(C)n2Cc1ccccn1 [Example 37, 5-Methoxy-2-methyl-1-[(2-pyridyl)methyl]-1H-indole-3-acetic acid hydrazide] | – | 27200 ± 7890 nM | – | –
19 | Cc1c(CC(=O)NN)c2cc(C(=O)O)ccc2n1Cc1cccc(Cl)c1 [Example 68, 5-Carboxy-1-[(3-chlorophenyl)methyl]-2-methyl-1H-indole-3-acetic acid hydrazide] | 48 ± 7% | 360 ± 30 nM | 41.2 ± 3.8% | –
